Biological target: T1, Human TREX1 enzyme (amino acids 1-242) (Homo sapiens, UniProt Q9NSU2)
T1 construct: Human TREX1 enzyme (amino acids 1-242)
T1 sequence (Q9NSU2 1-242): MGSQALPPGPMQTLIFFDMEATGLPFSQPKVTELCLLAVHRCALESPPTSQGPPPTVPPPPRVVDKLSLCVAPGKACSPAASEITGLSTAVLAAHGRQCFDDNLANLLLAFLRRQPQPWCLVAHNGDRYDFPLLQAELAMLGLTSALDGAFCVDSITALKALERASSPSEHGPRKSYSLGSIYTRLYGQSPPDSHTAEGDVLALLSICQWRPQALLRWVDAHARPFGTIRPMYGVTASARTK
Test: Human TREX1 enzymatic assay with dsDNA native oligonucleotide (Picogreen fluorescence)
Format: biochemical
Details: 2 mM dithiothreitol in assay buffer; 50 nM dsDNA oligonucleotide; 30 min preincubation at 25° C.; read-out: TREX1/Human + DTT IC50 AVG
How it was run: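 Remaining dsDNA quantified by Picogreen fluorescence after EDTA quench, with no-enzyme and DMSO wells as controls. Reactions used 50 nM annealed oligonucleotide for 5–15 min at 25 °C, after a 30 min compound–enzyme preincubation (0.8–0.16 nM TREX1; 2% DMSO; pH 7.7 Tris, 5 mM MgCl2).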

| Compound | IC50 [µM] |
| --- | --- |
| COc1cc(-c2nc3cc(N4CC(C#N)C4)ccc3[nH]2)cc(O)c1O [Example 138, 1-(2-(3,4-dihydroxy-5-methoxyphenyl)-1H-benzo[d]imidazol-5-yl)azetidine-3-carbonitrile] | > 100 |
| O=C(O)c1ccc(-c2nc3ccccc3n2C2COC2)c(F)c1O [Example 141, 3-fluoro-2-hydroxy-4-(1-(oxetan-3-yl)-1H-benzo[d]imidazol-2-yl)benzoic acid] | > 100 |
| COc1cc(-c2nc3cc(N4CC5(CNC5)C4)ccc3[nH]2)cc(O)c1O [Example 142, 5-(5-(2,6-diazaspiro[3.3]heptan-2-yl)-1H-benzo[d]imidazol-2-yl)-3-methoxybenzene-1,2-diol] | > 100 |
| COc1cc(-c2nc3cc(N4CC(C)C4)ccc3[nH]2)cc(O)c1O [Example 143, 3-methoxy-5-(5-(3-methylazetidin-1-yl)-1H-benzo[d]imidazol-2-yl)benzene-1,2-diol] | > 100 |
| COc1cc(-c2nc3cc(N4CC(F)C4)ccc3[nH]2)cc(O)c1O [Example 145, 5-(5-(3-fluoroazetidin-1-yl)-1H-benzo[d]imidazol-2-yl)-3-methoxybenzene-1,2-diol] | > 100 |
| O=C(O)c1ccc(-c2nc3ccncc3[nH]2)c(F)c1O [Example 147, 3-fluoro-2-hydroxy-4-(3H-imidazo[4,5-c]pyridin-2-yl)benzoic acid] | > 100 |
| COc1cc(-c2nc3cc(N4CCOCC4)ccc3[nH]2)cc(C(=O)O)c1O [Example 151, 2-hydroxy-3-methoxy-5-(5-morpholino-1H-benzo[d]imidazol-2-yl)benzoic acid] | 10 to 100 |
| COc1cc(-c2nc3cc(N4CC5(CN(C)C5)C4)ccc3[nH]2)cc(O)c1O [Example 152, 3-methoxy-5-(5-(6-methyl-2,6-diazaspiro[3.3]heptan-2-yl)-1H-benzo[d]imidazol-2-yl)benzene-1,2-diol] | > 100 |
| COc1cc(-c2nc3cc(N4CC5(C4)CN(C(C)C)C5)ccc3[nH]2)cc(O)c1O [Example 153, 5-(5-(6-isopropyl-2,6-diazaspiro[3.3]heptan-2-yl)-1H-benzo[d]imidazol-2-yl)-3-methoxybenzene-1,2-diol] | 10 to 100 |
| COc1cc(-c2nc3cc(N4CCN(C(=O)c5ccccc5C(=O)O)CC4)ccc3[nH]2)cc(O)c1O [Example 155, 2-(4-(2-(3,4-dihydroxy-5-methoxyphenyl)-1H-benzo[d]imidazol-5-yl)piperazine-1-carbonyl)benzoic acid] | 10 to 100 |
| COc1cc(-c2nc3cc(N4CCOCC4)ccc3s2)cc(O)c1O [Example 156, 3-methoxy-5-(5-morpholinobenzo[d]thiazol-2-yl)benzene-1,2-diol] | 10 to 100 |
| COc1cc(-c2nc3cc(N4CCC(N5CCCCC5)CC4)ccc3[nH]2)cc(O)c1O [Example 160, 5-(5-([1,4′-bipiperidin]-1′-yl)-1H-benzo[d]imidazol-2-yl)-3-methoxybenzene-1,2-diol] | > 100 |
| O=C(O)c1ccc(-c2nc3ccccc3n2C2COC2)c(C(F)(F)F)c1O [Example 161, 2-hydroxy-4-(1-(oxetan-3-yl)-1H-benzo[d]imidazol-2-yl)-3-(trifluoromethyl)benzoic acid] | > 100 |
| Oc1cc(-c2nc3ccccc3n2C2COC2)c2c(c1O)OCC2 [Example 162, 4-(1-(oxetan-3-yl)-1H-benzo[d]imidazol-2-yl)-2,3-dihydrobenzofuran-6,7-diol] | > 100 |
| COc1cc(-c2nc3ccccc3n2C2CNC2)c(C)c(O)c1O [Example 165, 4-(1-(azetidin-3-yl)-1H-benzo[d]imidazol-2-yl)-6-methoxy-3-methylbenzene-1,2-diol] | 10 to 100 |
| COc1cc(-c2nc3ccc(N4CCC4)cc3n2C2CCOC2)cc(C(=O)O)c1O (centres unmarked) [Example 166, 5-(6-(azetidin-1-yl)-1-(tetrahydrofuran-3-yl)-1H-benzo[d]imidazol-2-yl)-2-hydroxy-3-methoxybenzoic acid] | 10 to 100 |
| COc1cc(-c2nc3ccccc3n2[C@H]2COC[C@@H]2O)c(C)c(O)c1O [Example 170, 4-(1-((3S,4R)-4-hydroxytetrahydrofuran-3-yl)-1H-benzo[d]imidazol-2-yl)-6-methoxy-3-methylbenzene-1,2-diol] | 10 to 100 |
| Cc1cc(C(=O)O)c(O)cc1-c1nc2ccccc2n1C1COC1 [Example 171, 2-hydroxy-5-methyl-4-(1-(oxetan-3-yl)-1H-benzo[d]imidazol-2-yl)benzoic acid] | > 100 |
| COCCn1c(-c2cc(OC)c(O)c(O)c2C)nc2ccccc21 [Example 172, 6-methoxy-4-[1-(2-methoxyethyl)-1H-1,3-benzodiazol-2-yl]-3-methylbenzene-1,2-diol] | > 100 |
| CCc1c(-c2nc3ccccc3n2C2(C)COC2)cc(OC)c(O)c1O [Example 173, 3-ethyl-6-methoxy-4-[1-(3-methyloxetan-3-yl)-1H-1,3-benzodiazol-2-yl]benzene-1,2-diol] | 10 to 100 |

Other lines, results leading:

| IC50 [µM] | Compound |
| --- | --- |
| 1 to 10 | COc1cc(-c2nc3cc(N4CC(S(C)(=O)=O)C4)ccc3[nH]2)cc(O)c1O [Example 139, 3-methoxy-5-(5-(3-(methylsulfonyl)azetidin-1-yl)-1H-benzo[d]imidazol-2-yl)benzene-1,2-diol] |
| 10 to 100 | O=C(O)c1cc(-c2nc3cc(N4CCOCC4)ccc3[nH]2)ccc1O [Example 140, 2-hydroxy-5-(5-morpholino-1H-benzo[d]imidazol-2-yl)benzoic acid] |
| 10 to 100 | COc1cc(-c2nc3cc(N4CC(OC)C4)ccc3[nH]2)cc(O)c1O [Example 144, 3-methoxy-5-(5-(3-methoxyazetidin-1-yl)-1H-benzo[d]imidazol-2-yl)benzene-1,2-diol] |
| 1 to 10 | COc1cc(-c2nc3cc(N4CC(NS(C)(=O)=O)C4)ccc3[nH]2)cc(O)c1O [Example 146, N-(1-(2-(3,4-dihydroxy-5-methoxyphenyl)-1H-benzo[d]imidazol-5-yl)azetidin-3-yl)methanesulfonamide] |
| 1 to 10 | COc1cc(-c2nc3ccccc3n2C2CCCC2)c(C)c(O)c1O [Example 148, 4-(1-cyclopentyl-1H-benzo[d]imidazol-2-yl)-6-methoxy-3-methylbenzene-1,2-diol] |
| 10 to 100 | COc1cc(-c2nc3ccccc3n2C2CCOCC2)c(C)c(O)c1O [Example 149, 6-methoxy-3-methyl-4-(1-(tetrahydro-2H-pyran-4-yl)-1H-benzo[d]imidazol-2-yl)benzene-1,2-diol] |
| 1 to 10 | O=C(O)c1cc(F)c(-c2nc3cc(N4CCC4)ccc3[nH]2)cc1O [Example 150, 4-(5-(azetidin-1-yl)-1H-benzo[d]imidazol-2-yl)-5-fluoro-2-hydroxybenzoic acid] |
| 1 to 10 | COc1cc(-c2nc3cc(N4CCN(C(=O)c5cccc(C)c5)CC4)ccc3[nH]2)cc(O)c1O [Example 154, (4-(2-(3,4-dihydroxy-5-methoxyphenyl)-1H-benzo[d]imidazol-5-yl)piperazin-1-yl)(m-tolyl)methanone] |
| 1 to 10 | COc1cc(-c2nc3cc(N4CCC4)ccc3[nH]2)c(F)c(O)c1O [Example 157, 4-(5-(azetidin-1-yl)-1H-benzo[d]imidazol-2-yl)-3-fluoro-6-methoxybenzene-1,2-diol] |
| 1 to 10 | COc1cc(-c2nc3ccccc3n2C2(C)CCOC2)c(C)c(O)c1O (centres unmarked) [Example 158, 6-methoxy-3-methyl-4-(1-(3-methyltetrahydrofuran-3-yl)-1H-benzo[d]imidazol-2-yl)benzene-1,2-diol] |
| 1 to 10 | COc1cc(-c2nc3cc(N4CCN(C(=O)c5ccccc5)CC4)ccc3[nH]2)c(F)c(O)c1O [Example 159, (4-(2-(2-fluoro-3,4-dihydroxy-5-methoxyphenyl)-1H-benzo[d]imidazol-5-yl)piperazin-1-yl)(phenyl)methanone] |
| 0.1 to 1 | Oc1cc(-c2nc3ccccc3n2C2COC2)c2c(c1O)OCCC2 [Example 163, 5-(1-(oxetan-3-yl)-1H-benzo[d]imidazol-2-yl)chroman-7,8-diol] |
| 1 to 10 | COc1cc(-c2nc3cc(N4CCC4)c(C)cc3[nH]2)cc(O)c1O [Example 164, 5-(5-(azetidin-1-yl)-6-methyl-1H-benzo[d]imidazol-2-yl)-3-methoxybenzene-1,2-diol] |
| 1 to 10 | COc1cc(-c2nc3ccccc3n2C2COC2)c(F)c(O)c1O [Example 167, 3-fluoro-6-methoxy-4-(1-(oxetan-3-yl)-1H-benzo[d]imidazol-2-yl)benzene-1,2-diol] |
| 0.1 to 1 | COc1cc(-c2nc3ccccc3n2C2CCC2)c(C)c(O)c1O [Example 168, 4-(1-cyclobutyl-1H-benzo[d]imidazol-2-yl)-6-methoxy-3-methylbenzene-1,2-diol] |
| 0.1 to 1 | COc1cc(-c2nc3ccccc3n2C2(C)COC2)c(C)c(O)c1O [Example 169, 6-methoxy-3-methyl-4-(1-(3-methyloxetan-3-yl)-1H-benzo[d]imidazol-2-yl)benzene-1,2-diol] |
| 0.1 to 1 | COc1ccc2c(c1)nc(-c1cc(OC)c(O)c(O)c1C)n2C1CCC1 [Example 176, 4-(1-cyclobutyl-5-methoxy-1H-1,3-benzodiazol-2-yl)-6-methoxy-3-methylbenzene-1,2-diol] |
| 0.1 to 1 | COc1cc(-c2nc3ccc(C(=O)N4CCC4)cc3n2C2(C)COC2)c(F)c(O)c1O [Example 177, 4-[6-(azetidine-1-carbonyl)-1-(3-methyloxetan-3-yl)-1H-1,3-benzodiazol-2-yl]-3-fluoro-6-methoxybenzene-1,2-diol] |
